Experiments:
Male CF1 mice = assay: Anorexia test, subcutaneous dose route (milk consumption of fasted mice); assay type: in vivo; conditions: Mus musculus, sc, male CF1 mice fasted 17 to 21 hours, dose at which treated mice would consume 50% as much milk as controls, milk 7 1/2 to 15 min after dose, 10 min count
Experimental: Male CF1 mice, which had been fasted for 17 to 21 hours, were dosed subcutaneously with the test compound (20 mice per dose) and placed into an individual compartment (13.3 cm×12.7 cm×12.7 cm) with a 0.64 cm×0.64 cm wire mesh floor. 71/2 to 15 minutes later a black Lucite bar (13 cm×1.2 cm×1.2 cm) in the top of which were ten shallow round spot depressions (0.8 cm diameter) was inserted into each compartment. Each depression contained 0.05 ml of 50% sweetened condensed milk.
Ten minutes after the milk was presented to the mice, the number of milk spots each mouse had consumed was counted. Fractions of spots consumed also were estimated and counted. Dose-response curves were plotted and from these the ED50%, the dose at which treated mice would be expected to consume 50% as much milk as control mice, was calculated.

Female CF1 mice = assay: Anorexia test, oral dose route (milk consumption of fasted mice); assay type: in vivo, mouse; conditions: for ED50: Mus musculus, oral, female CF1 mice fasted 17 to 21 hours, dose at which treated mice would consume 50% as much milk as controls, milk 1/2 h after dose, 30 min count; for food intake in mice: summary statement on Table I
Experimental: Female CF1 mice, which had been fasted for 17 to 21 hours, were dosed orally with the test compound (ten or more mice per dose). One-half hour later, each mouse was transferred to an individual compartment (13.3 cm×12.7 cm×12.7 cm) with a 0.64 cm×0.64 cm wire mesh floor. Inside each compartment was a brass bar (13 cm×1.2 cm×1.2 cm) in the top of which were ten shallow, round spot depressions (0.8 cm diameter). Each depression contained 0.05 ml of 50% sweetened condensed milk.
Thirty minutes after the mice were transferred into the compartments, the number of milk spots each mouse had consumed was counted. Fractions of spots consumed also were estimated and counted. The percent anorexigenic effect was estimated by comparison of the mean number of spots of milk consumed per mouse at a given dose with the mean number of spots consumed per vehicle-treated control mouse. Dose-response curves were plotted and from these the ED50%, the dose at which treated mice would be expected to consume 50% as much milk as control mice, was calculated.

mammals = conditions: oral; cited from earlier work
rats = conditions: sweetened Enfamil baby formula; subcutaneous; cited from earlier work
[1] = Analgesic/narcotic antagonist property; conditions: stated in words, no test described
food-deprived mice = conditions: cited from earlier work
food-deprived rats = conditions: cited from earlier work

Structure (SMILES) | ED50 (Male CF1 mice) [mg/kg] | ED50 (Female CF1 mice) [mg/kg] | fluid intake of rats (rats) | also measured
O=C1CC[C@@]2(O)[C@H]3Cc4ccc(O)c5c4[C@@]2(CCN3CC2CC2)[C@H]1O5 [Naltrexone, (-)-17-cyclopropylmethyl-4,5α-epoxy-3,14-dihydroxymorphinan-6-one] | 0.4 | 3 | reduced | appetite suppression (mammals): appetite suppression
Cl.Oc1ccc2c3c1O[C@H]1CCC[C@@]4(O)[C@@H](C2)N(CC2CCC2)CC[C@]314 [Example 2, 17-Cyclobutylmethyl-4,5α-epoxymorphinan-3,14-diol, Hydrochloride] | 3.2 | 84 |  | food intake in mice (Female CF1 mice): decreased food intake
Oc1ccc2c3c1O[C@H]1CCC[C@@]4(O)[C@@H](C2)N(CC2CC2)CC[C@]314 [17-cyclopropylmethyl-4,5α-epoxymorphinan-3,14-diol] |  |  |  | analgesic/narcotic antagonist property [1]: narcotic antagonist
Cl.Oc1ccc2c3c1O[C@H]1CCC[C@@]4(O)[C@@H](C2)N(CC2CC2)CC[C@]314 [Example 1, 17-Cyclopropylmethyl-4,5α-epoxymorphinan-3,14-diol, Hydrochloride] |  | 2.5 |  | food intake in mice (Female CF1 mice): decreased food intake
C=CCN1CC[C@]23c4c5ccc(O)c4O[C@H]2C(=O)CC[C@@]3(O)[C@H]1C5 [naloxone, N-allyl-14-hydroxy-7,8-dihydronormorphinone] |  |  | reduced | eating by food-deprived mice (food-deprived mice): not by food-deprived mice; eating by food-deprived rats (food-deprived rats): suppresses eating
C=CCN1CC[C@]23c4c5ccc(O)c4O[C@H]2[C@@H](O)C=C[C@H]3[C@H]1C5 [nalorphine, N-allylnormorphine] |  |  | reduced | 
Oc1ccc2c3c1O[C@H]1CCC[C@@]4(O)[C@@H](C2)N(CC2CCC2)CC[C@]314 [17-cyclobutylmethyl-4,5α-epoxymorphinan-3,14-diol] |  |  |  | analgesic/narcotic antagonist property [1]: mixed analgesic/narcotic antagonist
CCNC(C)Cc1cccc(C(F)(F)F)c1 (centres unmarked) [Fenfluramine] | 7.6 | 13.5 |  | 

From patent US4478840A, “Appetite suppressing compositions and methods” (E. I. Du Pont de Nemours and Company, priority 1983, dated 1984)
